From US4665078A, “2-(3-amino-5-halo-2-pyridylalkylamino)-pyrimidones useful as histamine H1-antagonists” (Smith Kline & French Laboratories Limited, priority 1983, dated 1987)

Assays:
[1] = tested on: histamine H1-receptor; test: inhibition of H1-agonist induced reduction of blood pressure in the anaesthetised cat; assay type: in vivo; settings: intravenous (femoral veins), 2-(2-aminoethyl)pyridine-induced reduction in blood pressure
Experimental: Cats of either sex weighing between 2 and 3 kg were starved overnight and anaesthetised with sodium pentabarbitone (60 mg/kg i.p.). The trachea was cannulated and blood pressure was measured in a femoral artery. The compound under investigation was administered by cannulae in the right and left femoral veins. Anaesthetic was administered as required into one brachial vein. Dose-response curves were constructed by administering a standard H1 -agonist, 2-(2-aminoethyl)pyridine in increasing dose from 10^-8 mol/kg to 10^-5 mol/kg. The 2-(2-aminoethyl)pyridine-induced reduction in blood pressure was measured. The effect of the antagonists can be quantified by displacement of the 2-(2-aminoethyl)pyridine dose-response curve expressed as a dose-ratio. The compounds of Examples 1 and 2 caused displacement of the dose-responsecurves with a dose-ratio of 10 at doses of 0.06 and 0.0058 micromole/kg respectively.

[2] = target: T1, histamine H1-receptor (Cavia porcellus, UniProt P31389); test: inhibition of histamine induced bronchoconstriction in anaesthetised guinea pigs; assay type: in vivo; settings: i.v., anaesthetised guinea pig, histamine curve 5 minutes after antagonist
T1 construct: an isolated portion of the guinea pig ileum is secured under tension; from tissue; host or cells: isolated guinea pig ileum
T1 sequence (P31389 whole entry): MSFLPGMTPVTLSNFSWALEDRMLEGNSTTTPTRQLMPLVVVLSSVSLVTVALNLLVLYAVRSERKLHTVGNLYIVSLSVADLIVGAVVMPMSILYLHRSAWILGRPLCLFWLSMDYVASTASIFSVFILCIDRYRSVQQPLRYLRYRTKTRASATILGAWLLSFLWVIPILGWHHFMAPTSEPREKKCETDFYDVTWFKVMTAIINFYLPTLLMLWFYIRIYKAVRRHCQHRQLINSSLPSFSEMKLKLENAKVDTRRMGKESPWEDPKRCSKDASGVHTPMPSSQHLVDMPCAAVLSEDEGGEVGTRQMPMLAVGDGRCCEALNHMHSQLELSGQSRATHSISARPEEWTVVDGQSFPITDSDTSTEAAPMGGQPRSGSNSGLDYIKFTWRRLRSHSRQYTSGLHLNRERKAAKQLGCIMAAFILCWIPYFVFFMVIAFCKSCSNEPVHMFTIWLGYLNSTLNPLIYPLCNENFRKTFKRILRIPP
Experimental: Guinea pigs of either sex are anesthetised by intraperitoneal injection of sodium pentobarbitone, 90 mg/kg. The trachea is cannulated. The animal is respired artificially with a fixed volume of air just adequate to inflate the lungs. The pressure needed to inflate the lungs is monitored from the respiratory system using a low pressure transducer. Intranvenous injection of histamine causes dose-dependent increases in the pressure to inflate the lungs reflecting the bronchoconstrictor action of histamine. Responses to histamine can be antagonised using histamine H1 -receptor antagonists.
Dose-response curves to histamine are established at 20, 40, 80, 160 and 320 nmols/kg. Antagonists are then administered by intravenous injection and 5 minutes later a new histamine dose-response curve is established increasing the doses of histamine as necessary. The effect of the antagonist can be quantified by the displacement, to the right, of the histamine dose-response curve, expressed as a dose-ratio. A series of doses of antagonists may be given to each animal allowing calculation of dose-ratios for each dose of antagonist. The compounds of Examples 1 and 2 hereafter cause displacement of histamine dose-response curves with a dose-ratio of 10 at doses of less than 0.8 micromole kg^-1 i.v.

[3] = target: T1, histamine H1-receptor; test: guinea pig ileum test (in vitro histamine H1-antagonist activity); settings: isolated guinea pig ileum, histamine-induced contraction, 8 min contact, 30° C.; read-out: pA2 value (converted)
Experimental: In this test an isolated portion of the guinea pig ileum is secured under tension (500 mg) between an anchorage and a transducer in a 10 ml tissue bath and immersed in magnesium free Tyrode solution with constant aeration at a temperature of 30° C. The output from the transducer is amplified. The amplified output is in turn fed to a flat bed recorder. Measured amounts of histamine are added to the tissue bath so that the histamine concentration increases step-wise until the force of the contraction reaches a maximum. The tissue bath is washed out and filled with fresh magnesium free Tyrode solution containing compound under test. The solution is left in contact with the tissue for 8 min. and measured amounts of histamine are added again until a maximum contraction is recorded. The assay is repeated with increasing concentrations of test compound and the dose of histamine giving 50% of maximum contraction is noted. A dose ratio (DR) was calculated by comparing the concentrations of histamine required to produce 50% maximum response in the absence and in the presence of the antagonist. A plot of Log DR-1 against Log D (the concentration of compound under test) is made and the point of intersection with the Log (DR-1) ordinate is taken as the measure of the activity (pA2 value).

[4] = target: T2, histamine H2-receptor (Cavia porcellus, UniProt P47747); test: guinea pig atrium test (in vitro histamine H2-antagonist activity); settings: isolated guinea pig right atrium, histamine-induced rate of beating, 60 min contact, 37° C.; read-out: pA2 value (converted)
T2 construct: a spontaneously beating isolated portion of the guinea pig right atrium is secured under tension; from tissue; host or cells: isolated guinea pig right atrium
T2 sequence (P47747 whole entry): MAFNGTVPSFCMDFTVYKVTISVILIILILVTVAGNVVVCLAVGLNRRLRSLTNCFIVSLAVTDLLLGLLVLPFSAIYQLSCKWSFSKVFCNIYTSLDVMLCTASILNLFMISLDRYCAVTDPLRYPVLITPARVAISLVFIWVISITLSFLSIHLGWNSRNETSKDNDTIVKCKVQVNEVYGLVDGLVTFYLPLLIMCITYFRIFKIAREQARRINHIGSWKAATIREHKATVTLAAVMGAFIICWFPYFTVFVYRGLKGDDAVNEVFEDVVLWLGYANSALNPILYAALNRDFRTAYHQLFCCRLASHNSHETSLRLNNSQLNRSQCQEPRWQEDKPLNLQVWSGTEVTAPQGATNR
Experimental: In this test a spontaneously beating isolated portion of the guinea pig right atrium is secured under tension (300 mg) between an anchorage and a transducer in a 15 ml tissue bath and immersed in McEwens solution with constant aeration at a temperature of 37° C. The output from the transducer is amplified. Output is in turn fed to a flat bed recorder. Measured amounts of histamine are added to the tissue bath so that the histamine concentration increases step-wise until the rate of beating reaches a maximum. The tissue bath is washed out and filled with fresh McEwens solution containing compound under test. The solution is left in contact with the tissue for 60 min. and measured amounts of histamine are added again until a maximum rate is recorded. The assay is repeated with increasing concentrations of test compound and the dose of histamine giving 50% of maximum rate is noted. A dose ratio (DR) was calculated by comparing the concentrations of histamine required to produce 50% maximum response in the absence and in the presence of the antagonist. A plot of Log DR-1 against Log D (the concentration of compound under test) is made and the point of intersection with the Log (DR-1) ordinate is taken as the measure of the activity (pA2 value).

dose causing displacement of histamine dose-response curves with a dose-ratio of 10 [2] | Kb [3] [nM] | Kb [4] [nM] | Structure (SMILES) | dose causing displacement of the 2-(2-aminoethyl)pyridine dose-response curve with a dose-ratio of 10 [1] [µmol/kg]
 |  |  | Cc1ccc(Cc2cnc(NCCCCc3ncc(Br)cc3C)[nH]c2=O)cn1 [2-[4-(5-bromo-3-methylpyrid-2-yl)butylamino]-5-(6-methylpyrid-3-ylmethyl)-4-pyrimidone, reference compound] | 0.215
less than 0.8 micromole kg^-1 | < 10 | > 1000 | Cc1ccc(Cc2cnc(NCCCCc3ncc(Br)cc3N)[nH]c2=O)cn1 [Example 1, 2-[4-(5-bromo-3-aminopyrid-2-yl)butylamino]-5-(6-methylpyrid-3-ylmethyl) 4-pyrimidone] | 0.06
less than 0.8 micromole kg^-1 | < 10 | > 1000 | Nc1cc(Br)cnc1CCCCNc1ncc(Cc2cc[n+]([O-])cc2)c(=O)[nH]1 [Example 2, 2-[4-(5-bromo-3-aminopyrid-2yl)butylamino]-5-(N-oxopyrid-4-ylmethyl)-4-pyrimidone] | 0.0058
